US9834542B2, “LXR modulators” (BRISTOL-MYERS SQUIBB COMPANY, priority 2013, dated 2017)

Target: T1, LXRβ (Homo sapiens, UniProt P55055)
T1 construct: Co-transfection expression plasmids, comprising full-length LXRα (pCMX-h LXRα[…] or LXRβ (pCMX-hLXRβ)); expressed in transfected cells; host or cells: CV-1 African Green Monkey Kidney Cells
T1 sequence (P55055 1-460): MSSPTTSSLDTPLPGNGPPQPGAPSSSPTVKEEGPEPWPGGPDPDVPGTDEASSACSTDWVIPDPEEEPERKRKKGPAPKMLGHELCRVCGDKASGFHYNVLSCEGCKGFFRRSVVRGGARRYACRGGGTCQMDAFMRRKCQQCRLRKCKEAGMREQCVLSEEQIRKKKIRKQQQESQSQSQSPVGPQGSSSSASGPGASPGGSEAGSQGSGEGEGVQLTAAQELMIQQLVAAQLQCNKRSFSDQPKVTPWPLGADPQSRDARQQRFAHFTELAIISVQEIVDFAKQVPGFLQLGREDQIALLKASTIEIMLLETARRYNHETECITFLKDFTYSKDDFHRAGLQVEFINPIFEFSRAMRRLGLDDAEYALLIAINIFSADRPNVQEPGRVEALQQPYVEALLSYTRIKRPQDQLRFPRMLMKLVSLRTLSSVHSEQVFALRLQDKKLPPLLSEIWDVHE
T1 sequence (P19793 1-462 partner): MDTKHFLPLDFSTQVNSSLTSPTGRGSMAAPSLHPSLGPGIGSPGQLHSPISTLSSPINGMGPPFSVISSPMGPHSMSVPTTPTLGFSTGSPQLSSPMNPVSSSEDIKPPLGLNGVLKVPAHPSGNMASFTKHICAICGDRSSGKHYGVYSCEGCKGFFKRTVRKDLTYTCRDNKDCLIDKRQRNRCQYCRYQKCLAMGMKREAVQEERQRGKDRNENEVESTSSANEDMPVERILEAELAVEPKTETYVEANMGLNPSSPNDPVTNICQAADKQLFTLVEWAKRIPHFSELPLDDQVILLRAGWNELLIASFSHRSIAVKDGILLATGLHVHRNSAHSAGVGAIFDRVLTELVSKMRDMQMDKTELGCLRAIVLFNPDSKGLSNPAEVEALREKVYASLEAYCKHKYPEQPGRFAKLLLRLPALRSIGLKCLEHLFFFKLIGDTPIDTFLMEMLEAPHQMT
Experiment: Co-transfection assay (LXRE luciferase reporter), LXRβ
Assay type: cell-based
Parameters: % Efficacy: concentration or dose not given beside the values
Conditions: for EC50: CV-1 cells transfected with pCMX-hLXRβ and LXREx1-Tk-Luciferase, 20 hours incubation; for Emax: read-out: % Efficacy
Summary of the method: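 CV-1 / pCMX-hLXRβ + LXREx1-Tk-Luc + β-gal; cpd 20 h, 37 °C, ≤0.5% DMSO; Steady-Glo luminescence. 11-pt ½-log curves, duplicate wells, sigmoidal fit → EC50; % efficacy vs high-control agonist, DMSO low control; mean of ≥2 expts.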

[1] = LXRβ co-transfection, relative to high control 1-(2,4-difluorobenzyl)-2-oxo-6-(4-phenoxyphenyl)-4-(trifluoromethyl)-1,2-dihydropyridine-3-carbonitrile

EC50 [nM]	Emax [1] [%]	% Efficacy [1] [%]	Structure (SMILES)
426	63	–	COc1cnc(-c2oc(C)nc2-c2cc(-c3cc(F)c(CO)c(S(C)(=O)=O)c3)ccc2-n2cc(C(F)(F)F)nc2C)cn1 [Example 413, (3-fluoro-3′-(5-(5-methoxypyrazin-2-yl)-2-methyloxazol-4-yl)-4′-(2-methyl-4-(trifluoromethyl)-1H-imidazol-1-yl)-5-(methylsulfonyl)biphenyl-4-yl)methanol]
657	70	–	COc1ncc(-c2oc(C)nc2-c2cc(-c3cccc(S(C)(=O)=O)c3)ccc2-n2cc(C(F)(F)F)nc2C)cn1 [Example 414, 5-(2-methoxypyrimidin-5-yl)-2-methyl-4-(4-(2-methyl-4-(trifluoromethyl)-1H-imidazol-1-yl)-3′-(methylsulfonyl)biphenyl-3-yl)oxazole]
1500	86	–	COc1ncc(-c2oc(C)nc2-c2cc(-c3cc(F)c(CO)c(S(C)(=O)=O)c3)ccc2-n2cc(C(F)(F)F)nc2C)cn1 [Example 415, (3-fluoro-3′-(5-(2-methoxypyrimidin-5-yl)-2-methyloxazol-4-yl)-4′-(2-methyl-4-(trifluoromethyl)-1H-imidazol-1-yl)-5-(methylsulfonyl)biphenyl-4-yl)methanol]
30	76	–	Cc1nc(-c2cc(-c3cccc(S(=O)(=O)C4CC4)c3)ccc2-n2cc(C(F)(F)F)nc2C)c(-c2ccc3c(c2)OC(F)(F)O3)o1 [Example 416]
43	56	–	Cc1nc(-c2cc(-c3cccc(S(=O)(=O)C(F)F)c3)ccc2-n2cc(C(F)(F)F)nc2C)c(-c2ccc3c(c2)OC(F)(F)O3)o1 [Example 417, 5-(2,2-difluorobenzo[d][1,3]dioxol-5-yl)-4-(3′-(difluoromethylsulfonyl)-4-(2-methyl-4-(trifluoromethyl)-1H-imidazol-1-yl)biphenyl-3-yl)-2-methyloxazole]
740	73	–	Cc1nc(-c2cc(-c3cccc(C(=O)N(C)C)c3)ccc2-n2cc(C(F)(F)F)nc2C)c(-c2ccc3c(c2)OC(F)(F)O3)o1 [Example 418, 3′-(5-(2,2-difluorobenzo[d][1,3]dioxol-5-yl)-2-methyloxazol-4-yl)-N,N-dimethyl-4′-(2-methyl-4-(trifluoromethyl)-1H-imidazol-1-yl)biphenyl-3-carboxamide]
145	66	–	Cc1nc(-c2cc(-c3cccc(S(C)(=O)=O)c3)ccc2-n2cc(C(F)(F)F)nc2C)c(-c2ccc3c(c2)CC(C)(C)O3)o1 [Example 419, 5-(2,2-dimethyl-2,3-dihydrobenzofuran-5-yl)-2-methyl-4-(4-(2-methyl-4-(trifluoromethyl)-1H-imidazol-1-yl)-3′-(methylsulfonyl)biphenyl-3-yl)oxazole]
82	86	–	Cc1nc(-c2cc(-c3cc(F)c(CO)c(S(C)(=O)=O)c3)ccc2-n2cc(C(F)(F)F)nc2C)c(-c2ccc3c(c2)CC(C)(C)O3)o1 [Example 420, (3′-(5-(2,2-dimethyl-2,3-dihydrobenzofuran-5-yl)-2-methyloxazol-4-yl)-3-fluoro-4′-(2-methyl-4-(trifluoromethyl)-1H-imidazol-1-yl)-5-(methylsulfonyl)biphenyl-4-yl)methanol]
218	76	–	Cc1nc(-c2cc(-c3cc(F)c(CO)c(S(C)(=O)=O)c3)ccc2-n2cc(C(F)(F)F)nc2C)c(-c2cncc(Cl)c2)o1 [Example 421, (3′-(5-(5-chloropyridin-3-yl)-2-methyloxazol-4-yl)-3-fluoro-4′-(2-methyl-4-(trifluoromethyl)-1H-imidazol-1-yl)-5-(methylsulfonyl)biphenyl-4-yl)methanol]
110	74	–	Cc1ccc(-c2oc(C)nc2-c2cc(-c3cccc(S(C)(=O)=O)c3)ccc2-n2cc(C(F)(F)F)nc2C)c(Cl)n1 [Example 422, 5-(2-chloro-6-methylpyridin-3-yl)-2-methyl-4-(4-(2-methyl-4-(trifluoromethyl)-1H-imidazol-1-yl)-3′-(methylsulfonyl)biphenyl-3-yl)oxazole]
61	74	–	Cc1nc(-c2cc(-c3cccc(S(C)(=O)=O)c3)ccc2-n2cc(Cl)nc2C)c(-c2ccc3c(c2)OC(F)(F)O3)o1 [Example 423, 4-(4-(4-chloro-2-methyl-1H-imidazol-1-yl)-3′-(methylsulfonyl)biphenyl-3-yl)-5-(2,2-difluorobenzo[d][1,3]dioxol-5-yl)-2-methyloxazole]
46	59	–	Cc1nc(-c2cc(-c3cc(F)c(CO)c(S(C)(=O)=O)c3)ccc2-n2cc(Cl)nc2C)c(-c2ccc3c(c2)OC(F)(F)O3)o1 [Example 424, (4′-(4-chloro-2-methyl-1H-imidazol-1-yl)-3′-(5-(2,2-difluorobenzo[d][1,3]dioxol-5-yl)-2-methyloxazol-4-yl)-3-fluoro-5-(methylsulfonyl)biphenyl-4-yl)methanol]
203	71	–	Cc1nc(-c2cc(-c3cccc(S(C)(=O)=O)c3)ccc2-n2cc(C(F)(F)F)nc2C)c(-c2ccc(OCC(F)F)c(F)c2)o1 [Example 425, 5-(4-(2,2-difluoroethoxy)-3-fluorophenyl)-2-methyl-4-(4-(2-methyl-4-(trifluoromethyl)-1H-imidazol-1-yl)-3′-(methylsulfonyl)biphenyl-3-yl)oxazole]
118	92	–	Cc1nc(-c2cc(-c3cc(F)c(CO)c(S(C)(=O)=O)c3)ccc2-n2cc(C(F)(F)F)nc2C)c(-c2ccc(OCC(F)F)c(F)c2)o1 [Example 426, (3′-(5-(4-(2,2-difluoroethoxy)-3-fluorophenyl)-2-methyloxazol-4-yl)-3-fluoro-4′-(2-methyl-4-(trifluoromethyl)-1H-imidazol-1-yl)-5-(methylsulfonyl)biphenyl-4-yl)methanol]
143	63	–	Cc1nc(-c2cc(-c3cc(F)c(CO)c(S(C)(=O)=O)c3)ccc2-n2cc(C(F)(F)F)nc2C)c(-c2cccc(Cl)n2)o1 [Example 427, (3′-(5-(6-chloropyridin-2-yl)-2-methyloxazol-4-yl)-3-fluoro-4′-(2-methyl-4-(trifluoromethyl)-1H-imidazol-1-yl)-5-(methylsulfonyl)biphenyl-4-yl)methanol]
3090	50	–	Cc1ncc(-c2oc(C)nc2-c2cc(-c3cc(F)c(CO)c(S(C)(=O)=O)c3)ccc2-n2cc(C(F)(F)F)nc2C)cn1 [Example 428, (3-fluoro-4′-(2-methyl-4-(trifluoromethyl)-1H-imidazol-1-yl)-3′-(2-methyl-5-(2-methylpyrimidin-5-yl)oxazol-4-yl)-5-(methylsulfonyl)biphenyl-4-yl)methanol]
74	83	–	Cc1nc(-c2cc(-c3cccc(S(=O)(=O)C4CC4)c3)ccc2-n2cc(C(F)(F)F)nc2C)c(-c2ccc(OC(F)F)c(F)c2)o1 [Example 429, 4-(3′-(cyclopropylsulfonyl)-4-(2-methyl-4-(trifluoromethyl)-1H-imidazol-1-yl)biphenyl-3-yl)-5-(4-(difluoromethoxy)-3-fluorophenyl)-2-methyloxazole]
225	88	–	Cc1nc(-c2cc(-c3cccc(S(=O)(=O)C(F)F)c3)ccc2-n2cc(C(F)(F)F)nc2C)c(-c2ccc(OC(F)F)c(F)c2)o1 [Example 430, 5-(4-(difluoromethoxy)-3-fluorophenyl)-4-(3′-(difluoromethylsulfonyl)-4-(2-methyl-4-(trifluoromethyl)-1H-imidazol-1-yl)biphenyl-3-yl)-2-methyloxazole]
358	85	–	Cc1nc(-c2cc(-c3cccc(S(C)(=O)=O)c3)ccc2-n2cc(C(F)(F)F)nc2C)c(-c2ccc(Cl)cn2)o1 [Example 431, 5-(5-chloropyridin-2-yl)-2-methyl-4-(4-(2-methyl-4-(trifluoromethyl)-1H-imidazol-1-yl)-3′-(methylsulfonyl)biphenyl-3-yl)oxazole]
45	–	83	Cc1cc(-c2oc(C)nc2-c2cc(-c3cc(F)c(CO)c(S(C)(=O)=O)c3)ccc2-n2cc(C(F)(F)F)nc2C)cc(Cl)n1 [Example 432, (3′-(5-(2-chloro-6-methylpyridin-4-yl)-2-methyloxazol-4-yl)-3-fluoro-4′-(2-methyl-4-(trifluoromethyl)-1H-imidazol-1-yl)-5-(methylsulfonyl)biphenyl-4-yl)methanol]
